Assay results from paper PMC12040169 (PLOS Biology, 2025).

assay: in vitro; details: human, hela cells, % viability

Compound	viability at 28.5 h, 10 µM
NC(=O)COc1ccc(C2Nc3ccccc3C(=O)N2C2CC2)cc1 (stereo not shown) [CBK295198]	98.2%
Cc1nc(-c2ccccc2)cc([C@H]2CN3CC[C@H]2C[C@@H]3CNS(C)(=O)=O)n1 [CBK289124]	114%
COc1ccc(NC(=O)Nc2nn(Cc3ccc(Cl)cc3Cl)cc2Br)cc1OC [CBK266930]	101%
NC(=O)c1ccccc1NC(=O)CCCN1C(=O)CCC1=O [CBK267680]	94.1%
Cc1onc(-c2ccccc2)c1CNC(=O)c1cccnc1 [CBK144100]	111%
Cn1c(=O)c2c(nc(SCC(=O)O)n2C)n(C)c1=O [CBK262942]	88.3%
Cc1oc2[nH]c(CN(C)CCOc3ccc(Cl)cc3)nc(=N)c2c1C(=O)O [CBK279463]	102%
COc1ccc([N+](=O)[O-])cc1N(CC(=O)Nc1cccc2ccccc12)S(C)(=O)=O [CBK268197]	84.2%
COc1cc(C(C)NC(=O)c2ccc(=O)[nH]n2)ccc1OC1CCCC1 (stereo not shown) [CBK298335]	89.7%
CC(C)(C)CN1CCC(Oc2nccnc2OCc2ccc(Br)cc2F)CC1 [CBK161946]	116%
COc1ncc(-c2cncc(NCc3cccc(Cl)c3)n2)c(OC)n1 [CBK065211]	106%
Oc1cccc(OCCOc2nc3cc(Cl)c(Cl)cc3nc2N2CCCC2)c1 [CBK115778]	100%
CN(C)CCN(Cc1ccccc1)C(=O)Nc1cccnc1 [CBK145047]	95%
O=C(CSCc1c(F)cccc1Cl)Nc1ccc(S(=O)(=O)N2CCCCCC2)cc1 [CBK268497]	100%
CN(C)c1ccc(-c2nc(-c3ccco3)cnc2N)cc1 [CBK063934]	104%
COc1cccc(-n2cnc3cccc(N)c32)c1 [CBK022114]	94.9%
O=C(Nc1cccc(O)c1)c1ccc2c(c1)C(=O)N(Cc1ccco1)C2=O [CBK268640]	95.6%
COc1cc(C(=O)Oc2cccc(Nc3ncnc4ccccc34)c2)cc(OC)c1OC [CBK264908]	109%
COc1ccc(C)cc1CC(=O)N(C)CCN1CCCCC1 [CBK282750]	88.7%
Cc1nonc1CC(=O)NC1(c2ccc(F)cc2)CCCC1 [CBK283613]	93.2%
COC(=O)c1ccc(C(=O)OC)c(NC(=O)C2CCCCC2C(=O)O)c1 (stereo not shown) [CBK265422]	88%
CC(C)(Oc1ccc(Cl)cc1)C(=O)Nc1ccc(CN2CCOCC2)cc1 [CBK269940]	89.1%

Compound	viability at 28.5 h, 10 µM
CCC(C)Nc1nc(SCC(=O)OC)nc(N(C)C)n1 (stereo not shown) [CBK269780]	95.2%
O=C(c1ccccc1)c1ccc2[nH]c(-c3ccc(NC(=O)c4ccccc4Cl)cc3)nc2c1 [CBK262706]	83.7%
COc1ccc(S(=O)(=O)N(C)c2ccc(N3CCNCC3)c3ccccc23)cc1 [CBK022404C]	94.9%
CN(C(=O)C1CCC1)c1nc2c(s1)CCc1c-2cnn1C [CBK281931]	75.9%
CCS(=O)(=O)c1nc2ccccc2n1CC(=O)Nc1ccccc1C(=O)OC [CBK267877]	90%
CS(=O)(=O)N1C[C@@H]2CCCCN(Cc3cccc(F)c3)[C@@H]2C1 [CBK285514]	103%
O=C(O)CCNS(=O)(=O)c1ccc2ccccc2c1 [CBK286920]	98.6%
O=C(NCc1ccc(Cl)c(Cl)c1)N1CCCCC1CO (stereo not shown) [CBK156164]	113%
COc1ccc(NC(=O)CSc2nc(N)cc(O)n2)c([N+](=O)[O-])c1 [CBK267904]	101%
COc1cncc(-c2cc(N3CCN(C(=O)c4ccco4)CC3)ncn2)c1 [CBK091121]	97.4%
Cc1cc(C)c(NC(=O)N(CCCO)Cc2ccncc2)c(Cl)c1 [CBK304406]	87.3%
Cc1nc(NCCCn2ccnc2)c2ccccc2n1 [CBK051987]	95.1%
Cn1c(SCC(=O)c2ccccc2)nnc1-c1ccc(NC(=O)c2ccccc2Cl)cc1 [CBK264357]	95%
COc1cc(/C=N/Nc2nc(Nc3ccccc3)nc(Nc3ccccc3)n2)ccc1O [CBK262584]	84.9%
CCCc1cc(=O)[nH]c2nnc(SCC(=O)NC)n12 [CBK287685]	95.3%
Cc1cccc(CN2CCN(c3ccccc3C(O)c3nccn3C)CC2)c1 (stereo not shown) [CBK286441]	88.5%
CC(=O)Nc1nnc(SCC(=O)N2CCN(c3ccc(Cl)cc3)CC2)s1 [CBK307384]	86.6%
O=C(Nc1ccncc1)C1(c2ccccc2)CCCC1 [CBK287972]	111%
CC(C)(C)C(=O)NCCn1c(=O)oc2ccccc21 [CBK282885]	96.4%
CSc1nc(O)c(C(c2ccc(Cl)cc2)c2c(O)nc(SC)nc2O)c(O)n1 [CBK265306]	105%
CC(CN1CCN(Cc2ccccc2)CC1)N(C(=O)c1ccoc1)c1ccccn1 (stereo not shown) [CBK074861C]	92.1%
O=C(CCc1ccccc1)N1CCC(c2cccc(Cc3cccc(F)c3)n2)CC1 [CBK286219]	97.5%

Compound	viability at 28.5 h, 10 µM
CC(=O)N(C)c1ncc(Br)cc1C(=O)NCC1COc2ccccc2O1 (stereo not shown) [CBK076558]	91.7%
O=C(CSc1nnc(-c2cccnc2)n1-c1ccc(Br)cc1)Nc1ccc(F)cc1 [CBK266174]	111%
COc1ccc2c(c1)cc(C)c1n[nH]c(=O)n12 [CBK283766]	76.7%
COc1ccc(-c2ccccc2NC(=O)c2ccc(Cn3cnnn3)cc2)cc1 [CBK285866]	96.4%
CC1=NN(C(=O)C2CC2)C(=O)C1Cc1ccc(F)cc1 (stereo not shown) [CBK083561]	89.9%
CN(C)CCN(C)C(=O)c1ccc(-c2cc3ccccc3o2)nc1NCc1cccnc1 [CBK076160]	90.8%
Nc1nnc(SCC(=O)NC23CC4CC(CC(C4)C2)C3)s1 [CBK267417]	97.1%
O=C(O)[C@@H]1CC(O)CN1C(=O)c1ccc2noc(-c3ccccc3)c2c1 (stereo partly shown) [CBK286736]	86.1%
O=C(Nc1nnc(-c2ccco2)o1)c1cccc(C(F)(F)F)c1 [CBK287422]	88.6%
Cc1cccc(CSc2nnc(C(C)NC(=O)c3ccccc3F)n2C)c1 (stereo not shown) [CBK269732]	91.6%
Cc1nc(C)n(CC2CCCN(Cc3cn4ccccc4c3C#N)C2)n1 (stereo not shown) [CBK306103]	92.6%
CC(C)NC(=O)[C@@H](C)C1CC[C@@]2(C)CC[C@H](NC(=O)C3CC3)[C@@H](C)[C@@H]2[C@H]1O (stereo partly shown) [CBK289444]	85%
COc1cccc(C(=O)COC(=O)c2cc(-c3ccccc3)nc3ccc(Br)cc23)c1 [CBK265143]	94.4%
COc1ccc(C2=CC(c3ccc(C(F)(F)F)cc3)n3nnnc3N2)cc1OC (stereo not shown) [CBK296131]	117%
O=c1[nH]c2ccccc2n1CCOc1ccccc1 [CBK288008]	98.5%
COc1ccc(Oc2cncc(OC3CCN(CC4CCCCC4)C3)n2)cc1OC (stereo not shown) [CBK084413]	96.4%
CC(C)(C)OC(=O)N1CCCC(C(=O)NCCc2ccccn2)C1 (stereo not shown) [CBK304281]	86.5%
S=c1ccc(N/N=C/C2CC=CCC2)n[nH]1 (stereo not shown) [CBK018655]	95.3%
CC1(C)CC(N(Cc2ccc(F)cc2)Cc2c[nH]cn2)CC(C)(C)N1 [CBK282540]	102%
Cc1ccc(C(=O)NC2CCCC2)cn1 [CBK200117]	91.6%
CCCNC(=O)NCCc1cccs1 [CBK043675]	102%
COC(=O)C(C)(C)NC(=O)c1ccn(-c2cc(C)ccc2OC)n1 [CBK305989]	107%

Compound	viability at 28.5 h, 10 µM
CC(C)(C)OC(=O)N1CCC2(CC1)N=C(c1ccccc1)C(=S)N2 [CBK288478]	112%
O=C(c1cc(-c2ccc(Cl)cc2)[nH]n1)N1CCNCC1 [CBK116548]	99.5%
Nc1ncc(-c2ccc(-c3ccccc3)cc2)nc1NC1CCCCC1 [CBK063572]	87.3%
N#C/N=C(/Nc1cccnc1)Oc1ccccc1 [CBK012612]	87.3%
Cc1ccccc1-c1ccc(C(=O)Nc2ccc3c(c2)OCO3)c(N2CCN(C(=O)c3ccco3)CC2)n1 [CBK076196]	101%
CCn1c2ccccc2c2cc(NC(=O)CN(C)S(=O)(=O)c3ccc(C)cc3)ccc21 [CBK266756]	92.8%
COc1ccccc1N1CCN(C(=O)Nc2cccnc2)CC1 [CBK155617]	98.7%
NC(=O)c1ccccc1NC(=O)CCN1C(=O)c2cccc([N+](=O)[O-])c2C1=O [CBK263118]	87.4%
O=C1/C(=N\O)c2ccccc2N1Cc1ccccc1 [CBK288484]	99.7%
CSc1nnc(Cc2nnc(SC)n2-c2ccccc2)n1-c1ccccc1 [CBK267145]	105%
COc1ccc(N2CCN(/C(=N\S(=O)(=O)c3ccc(C)cc3)Nc3nc(C)cc(C)n3)CC2)cc1 [CBK266564]	99.9%
C[C@@H]1CC(=O)CCC1NC(=O)c1ccccc1 (stereo partly shown) [CBK017832]	88.4%
CCS(=O)(=O)N1C[C@H]2CC[C@](O)(c3ccc(C)cc3)[C@H]2C1 [CBK285296]	107%
O=C(C1CCN(S(=O)(=O)c2ccc3ccccc3c2)CC1)N1CCC(Cc2ccccc2)CC1 [CBK269558]	83%
Cc1ccc(S(=O)(=O)Nc2sccc2C(=O)O)cc1[N+](=O)[O-] [CBK042258]	102%
Cc1ccc(-c2nnc(NCc3cnn(C)c3C)o2)c(C)c1 [CBK306166]	88.2%
CCCCn1nc(Cn2cncn2)nc1CC1NC(=O)c2ccccc21 (stereo not shown) [CBK307395]	108%
COc1ccc(N(CCC#N)S(=O)(=O)c2cccc3nsnc23)cc1 [CBK025851]	90.7%
CCOCCN1C[C@@H](C(F)(F)F)[C@H](C(=O)O)C1 [CBK287033]	91.9%
COc1ccc(C(=O)C2=C(O)C(=O)N(CCCN(C)C)C2c2ccc(Cl)c(Cl)c2)cc1 (stereo not shown) [CBK264723]	94.4%

same assay, conditions: human, hela cells, % viability, bulk resorufin, single well

Compound	viability at 28.5 h, 10 µM
Cc1ccc(OP(=O)(NCCN2CCOCC2)Oc2ccc(C)cc2)cc1 [CBK261802]	107%
CC(=O)Nc1ccc(-c2ccc3c(c2)COC2(CCN(C(=O)Cc4ccc(F)cc4F)CC2)O3)cc1 [CBK122474]	102%
